Experimental data taken from PubChem BioAssay (NCI).
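Following 48 hours of exposure in 96-well plates, responses at five concentrations were used to interpolate endpoints linearly. GI50 marks 50% less growth. At the TGI there is no net growth.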

Experiments:
Test in all cases: NCI tumour cell line growth inhibition, 48 h
MALME-3M melanoma = system: MALME-3M melanoma
CCRF-CEM leukemia = system: CCRF-CEM leukemia
NCI-H23 lung = system: NCI-H23 lung
UACC-62 melanoma = system: UACC-62 melanoma
MOLT-4 leukemia = system: MOLT-4 leukemia
OVCAR-8 ovarian = system: OVCAR-8 ovarian
A498 renal = system: A498 renal
HCC-2998 colon = system: HCC-2998 colon
SNB-75 CNS = system: SNB-75 CNS
SK-OV-3 ovarian = system: SK-OV-3 ovarian

SMILES	TGI (MALME-3M melanoma)	TGI (CCRF-CEM leukemia)	TGI (NCI-H23 lung)	TGI (UACC-62 melanoma)	TGI (MOLT-4 leukemia)	TGI (OVCAR-8 ovarian)	TGI (A498 renal)	TGI (HCC-2998 colon)	TGI (SNB-75 CNS)	TGI (SK-OV-3 ovarian)	GI50 (MALME-3M melanoma)	GI50 (CCRF-CEM leukemia)	GI50 (NCI-H23 lung)	GI50 (UACC-62 melanoma)	GI50 (MOLT-4 leukemia)	GI50 (OVCAR-8 ovarian)	GI50 (A498 renal)	GI50 (HCC-2998 colon)	GI50 (SNB-75 CNS)	GI50 (SK-OV-3 ovarian)
COc1ccc2c(c1)CC1c3c(cc4c(c3-2)OCO4)CCN1C (stereo not given)	83.3 µM	> 100 µM	73.9 µM	47.6 µM	64.9 µM	70.4 µM	31.7 µM	> 100 µM	56.9 µM	69.1 µM										
COC1=CC(=O)[C@]2(C)[C@H](C1=O)C(C)[C@H]2c1ccccc1 (stereo not given in full)	> 100 µM	> 100 µM	> 100 µM	> 100 µM	> 100 µM	> 100 µM	> 100 µM	> 100 µM	> 100 µM	> 100 µM										
O=P1(O)c2ccccc2Nc2cc(C(F)(F)F)ccc21	> 100 µM	> 100 µM	> 100 µM	> 100 µM	> 100 µM	> 100 µM	> 100 µM	> 100 µM	> 100 µM	> 100 µM										
CC1/C(=N/Nc2ccc([N+](=O)[O-])cc2)CC2C3(C)CCC2(C(C)C(=O)O)C(=O)C13 (stereo not given)	> 100 µM	> 100 µM	> 100 µM	> 100 µM	> 100 µM	> 100 µM	41.9 µM	51.7 µM	> 100 µM	> 100 µM	> 100 µM	16.3 µM	29.1 µM	6.51 µM	22.5 µM	8.17 µM	0.85 µM	2.39 µM	> 100 µM	> 100 µM
Cc1ccc(N2C(=O)/C(=C/c3ccc(N(CCC#N)CCC#N)cc3C)N=C2c2cc([N+](=O)[O-])ccc2Cl)cc1	> 100 µM	> 100 µM	> 100 µM	> 100 µM	> 100 µM	> 100 µM	> 100 µM	> 100 µM	> 100 µM	> 100 µM										
NCCCCN(Cc1nc2ccccc2[nH]1)[C@H]1CCCc2cccnc21	28.2 µM	56.3 µM	> 100 µM	47.4 µM	69.4 µM	> 100 µM	> 51.8 µM	38.2 µM	> 100 µM	> 86.5 µM	13.2 µM	7.06 µM	20.4 µM	17.8 µM	17.5 µM	20 µM	7.81 µM	16.9 µM	8.53 µM	18.6 µM
CS(=O)(=O)Nc1cc(-c2ccc3ncnc(Nc4ccc5c(cnn5Cc5ccccc5F)c4)c3c2)cnc1Cl	3 µM	> 31.2 µM	> 100 µM	5.37 µM	7.48 µM	> 100 µM	3.71 µM	8.46 µM	2.4 µM	3.96 µM	0.466 µM	0.634 µM	2.81 µM	1.47 µM	1.54 µM	2.72 µM	1.05 µM	2.2 µM	0.157 µM	0.845 µM
Cc1ccc(S(=O)(=O)c2c3[nH]c4ccccc4nc3n3c2nc2ccccc23)cc1	> 100 µM	> 100 µM	> 100 µM	> 100 µM	> 100 µM	> 100 µM	> 100 µM	> 100 µM	> 100 µM	> 100 µM										
